As a reminder, the IC50 is the point on the concentration scale where inhibition reaches its midpoint.

This experiment has as its target P70S6K (Homo sapiens (Human), UniProt P23443, T412E). Put plainly: P70S6K Enzyme Assay. The class given is biochemical. As to conditions: P70S6K T412E mutant, 24 μM ATP, mobility shift (Caliper). On the procedure: P70S6K inhibitor compounds are diluted and plated in 96 well plates. […] The reaction is incubated for 90 min at 25° C., before the addition of 10 mM EDTA to stop the reaction. The proportion of substrate and product (phosphorylated) peptide is analysed on a Caliper Life Sciences Lab Chip 3000, using a pressure of −1.4 psi, and upstream and downstream voltages of −3000 and −700 respectively. Product peaks are resolved before substrate peaks on the resulting chromatograms.

P70S6K, sequence (P23443 1-421 T412E): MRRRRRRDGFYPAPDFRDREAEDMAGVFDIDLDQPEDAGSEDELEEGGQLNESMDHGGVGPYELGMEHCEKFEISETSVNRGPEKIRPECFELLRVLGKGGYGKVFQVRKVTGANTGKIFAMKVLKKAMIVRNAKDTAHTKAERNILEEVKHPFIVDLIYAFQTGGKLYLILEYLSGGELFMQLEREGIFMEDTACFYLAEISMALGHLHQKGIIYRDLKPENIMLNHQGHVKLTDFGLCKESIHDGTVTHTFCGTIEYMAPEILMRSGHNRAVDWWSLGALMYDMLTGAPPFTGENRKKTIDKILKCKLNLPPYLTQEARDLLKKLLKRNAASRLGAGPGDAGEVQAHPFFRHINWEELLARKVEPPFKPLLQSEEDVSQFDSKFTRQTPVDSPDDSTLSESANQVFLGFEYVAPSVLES

For the molecule `NC(=O)c1ccc(NCc2ccccc2)c2cccnc12` [Example 42, 5-(Benzylamino)quinoline-8-carboxamide], the IC50 was determined as 0.68 µM.

On to `Cc1ccccc1N1CCN(c2ccc(C(N)=O)c3ncncc23)CC1` [Example 120, 5-[4-(2-methyl-phenyl)-piperazin-1-yl]-quinazoline-8-carboxylic acid amide], for which the IC50 came out at 0.98 µM.

`NC(=O)c1ccc(NCc2cc(F)c(F)c(F)c2)c2cccnc12` [Example 36, 5-(3,4,5-trifluorobenzylamino)-quinoline-8-carboxamide]: the concentration for half-maximal inhibition (IC50) is greater than 1 µM.

For the molecule `NCC(c1ccc(C(F)(F)F)cc1)N1CCN(c2ccc(C(N)=O)c3ncncc23)CC1` (racemic) [Example 8, 5-(4-(2-amino-1-(4-(trifluoromethyl)phenyl)ethyl)piperazin-1-yl)quinazoline-8-carboxamide], the IC50 worked out at 0.21 µM.

Turning to `NC(=O)c1ccc(NC(CN2CCCC2)c2ccccc2)c2cccnc12` (stereo not drawn) [Example 39], the 50% inhibitory concentration (IC50) was greater than 1 µM.

For the molecule `NC(=O)c1ccc(NC2CNC[C@@H]2c2ccc(OC(F)(F)F)cc2)c2cncnc12` (mixture of isomers) [Example 1, 5-((4-(4-(trifluoromethoxy)phenyl)pyrrolidin-3-yl)amino)quinazoline-8-carboxamide], the IC50 amounted to 0.023 µM.

Regarding `NC(=O)c1ccc(NC2CNC[C@@H]2c2cc(F)cc(Cl)c2)c2cncnc12` (mixture of isomers) [Example 2, 5-((4-(3-chloro-5-fluorophenyl)pyrrolidin-3-yl)amino)quinazoline-8-carboxamide], the half-maximal inhibitory concentration (IC50) came out at 0.16 µM.

As to `NC(=O)c1ccc(N2CCC(c3ccc(C(F)(F)F)cc3)C(N)C2)c2cncnc12` (racemic) [Example 83, 5-(3-amino-4-(4-(trifluoromethyl)phenyl)piperidin-1-yl)quinazoline-8-carboxamide], the IC50 was determined as 0.35 µM.

On to `CN(C)CCN(Cc1ccccc1)C(=O)C1CCN(c2ccc(C(N)=O)c3ncncc23)C1` (racemic) [Example 49, 5-(3-(benzyl(2-(dimethylamino)ethyl)carbamoyl)pyrrolidin-1-yl)quinazoline-8-carboxamide], for which the IC50 was determined as 1.6 µM.

As for `NC(=O)c1ccc(NC2CNCCC2c2ccc(C(F)(F)F)c(F)c2)c2cncnc12` (racemic) [Example 4, 5-((4-(3-fluoro-4-(trifluoromethyl)phenyl)piperidin-3-yl)amino)quinazoline-8-carboxamide], the IC50 was found to be 0.0059 µM.

Take `NC(=O)c1ccc(NC2CNCCC2c2ccc(C(F)(F)F)c(F)c2)c2cncnc12` (single isomer, unassigned) [Example 5]: the IC50 was 0.0099 µM.

Regarding `NC(=O)c1ccc(NC2(c3ccccc3)CNC2)c2cccnc12` [Example 19, 5-((3-phenylazetidin-3-yl)amino)quinoline-8-carboxamide], the half-maximal inhibitory concentration (IC50) is greater than 1 µM.

For the molecule `NC(=O)c1ccc(N2CCC(NC(=O)c3cccc(C(F)(F)F)c3)C2)c2cncnc12` (racemic) [Example 48, 5-(3-(3-(trifluoromethyl)benzamido)pyrrolidin-1-yl)quinazoline-8-carboxamide], the IC50 was 2.2 µM.

On to `NCC1(C(=O)Nc2ccccc2)CCCN(c2ccc(C(N)=O)c3ncncc23)C1` (racemic) [Example 11, 5-(3-(aminomethyl)-3-(phenylcarbamoyl)piperidin-1-yl)quinazoline-8-carboxamide], for which the IC50 was greater than 1 µM.

Take `NC(=O)c1ccc(N[C@@H]2CNCC[C@H]2c2ccc(C(F)(F)F)c(F)c2)c2cncnc12` (single isomer, unassigned) [Example 6]: the IC50 was found to be 0.054 µM.

Take `NC(=O)c1ccc(N2CC[C@H](c3cccc(F)c3)[C@H](N)C2)c2cncnc12` (racemic) [Example 88, 5-[(3S,4R)-3-Amino-4-(3-fluoro-phenyl)-piperidin-1-yl]-quinazoline-8-carboxylic acid amide]: the IC50 was 17.1 µM.

With `NC(=O)c1ccc(N2CCC(N)(C(=O)Nc3ccc(F)c(F)c3)C2)c2cncnc12` (racemic) [Example 44, 5-(3-amino-3-((3,4-difluorophenyl)carbamoyl)pyrrolidin-1-yl)quinazoline-8-carboxamide], the IC50 was 1.3 µM.

In the case of `COc1ccccc1N1CCN(c2ccc(C(N)=O)c3ncncc23)CC1` [Example 122, 5-[4-(2-methoxyphenyl)-piperazin-1-yl]-quinazoline-8-carboxylic acid amide], the IC50 was found to be 11 µM.

As for `NC(=O)c1ccc(N2CCC(N)(C(=O)Nc3ccccc3)C2)c2cncnc12` (racemic) [Example 15, 5-(3-amino-3-(phenylcarbamoyl)pyrrolidin-1-yl)quinazoline-8-carboxamide], the IC50 stood at 2.3 µM.

On to `NC(=O)c1ccc(NC2CNC[C@@H]2c2ccc3cccnc3c2)c2cccnc12` (mixture of isomers) [Example 17, 5-((-4-(quinolin-7-yl)pyrrolidin-3-yl)amino)quinoline-8-carboxamide], for which the IC50 turned out to be 0.19 µM.

As to `NC(=O)c1ccc(N2CCNC(c3ccccc3)C2)c2cccnc12` (racemic) [Example 18, 5-(3-phenylpiperazin-1-yl)quinoline-8-carboxamide], the IC50 came out at 0.67 µM.

In the case of `NC(=O)c1ccc(NC2CNC[C@@H]2c2cccc(OC(F)(F)F)c2)c2cccnc12` (mixture of isomers) [Example 21, 5-((-4-(3-(trifluoromethoxy)phenyl)pyrrolidin-3-yl)amino)quinoline-8-carboxamide], the IC50 was 0.022 µM.

As to `NC(=O)c1ccc(NC2CNCC[C@@H]2c2cccc(F)c2)c2cccnc12` (mixture of isomers) [Example 25, 5-((4-(3-fluorophenyl)piperidin-3-yl)amino)quinoline-8-carboxamide], the IC50 is 0.52 µM.

With `NC(=O)c1ccc(NCc2ccc(Cl)c(C(F)(F)F)c2)c2cccnc12` [Example 38, 5-(4-Chloro-3-trifluoromethylbenzylamino)-quinoline-8-carboxamide], the IC50 was greater than 1 µM.

Take `NC(=O)c1ccc(N2CCC(c3ccccc3)C(N)C2)c2cncnc12` (racemic) [Example 82, 5-(3-amino-4-phenylpiperidin-1-yl)quinazoline-8-carboxamide]: the IC50 turned out to be 0.12 µM.

Regarding `NC(=O)c1ccc(NCc2ccccc2F)c2cccnc12` [Example 32, 5-(2-Fluorobenzylamino)-quinoline-8-carboxamide], the IC50 was greater than 1 µM.

Turning to `NC(=O)c1ccc(NCc2ccc(F)cc2)c2cccnc12` [Example 31, 5-(4-Fluorobenzylamino)-quinoline-8-carboxamide], the IC50 was found to be 0.875 µM.

Regarding `NC(=O)c1ccc(N[C@@H]2CNC[C@@H]2c2cccc(OC(F)(F)F)c2)c2cccnc12` (racemic) [Example 24, 5-((-4-(3-(trifluoromethoxy)phenyl)pyrrolidin-3-yl)amino)quinoline-8-carboxamide], the half-inhibitory concentration (IC50) stood at 0.023 µM.

Turning to `NC(=O)c1ccc(N2CCN(c3ccccc3Cl)CC2)c2cncnc12` [Example 119, 5-[4-(2-chloro-phenyl)-piperazin-1-yl]-quinazoline-8-carboxylic acid amide], the IC50 was 0.4 µM.

For the molecule `NC(=O)c1ccc(NC2CNC[C@@H]2C(=O)Nc2cccc(F)c2)c2cncnc12` (mixture of isomers) [Example 13, 5-((-4-((3-fluorophenyl)carbamoyl)pyrrolidin-3-yl)amino)quinazoline-8-carboxamide], the IC50 worked out at 0.29 µM.

The values are drawn from patent publication US9139568B2 (Merck Patent GmbH, priority 2011, dated 2015).
